Data on two compounds can be found in US8927771B2, “Pharmaceutically acceptable cocrystals of N-[2-(7-methoxyl-1-naphtyl)ethyl]acetamide and methods of their preparation” (Zentiva k.s., priority 2011, dated 2015).

For data set [1] the following is noted: suspensions in organic solvents (alcohols, ketones, esters, alkanes, aromatic hydrocarbons), 30° C., one week, Raman spectroscopy. As for the experimental part: Samples of the agomelatine citric acid cocrystal were maturated as suspensions in a library of organic solvents including alcohols, ketones, esters, alkanes and aromatic hydrocarbons at a temperature of 30° C. for one week.

The conditions of data set [2]: DVS, range of 20-80% RH. The text has this:
A sample of the agomelatine citric acid cocrystal was subjected to DVS analysis ([…] Vapor Sorption). The sample was placed on a microbalance in a controlled humidity chamber and subjected to two cycles of increasing humidity (red and green lines) and two cycles of decreasing humidity (blue and purple lines) as shown in FIG. 4.

The conditions of data set [3]: slurried in water, Raman spectra. As for the experimental part:
A sample of the agomelatine citric acid cocrystal was slurried in water and the solid analysed by Raman spectroscopy at 20 minute intervals.

The conditions of data set [4]: 90° C. in a glass capillary for 7 hours, X-ray powder diffraction. As for the experimental part: A sample of the agomelatine citric acid cocrystal was heated to 90° C. in a glass capillary for 7 hours.
The conditions of data set [5]: BCS classification system; cited from earlier work.

With `COc1ccc2cccc(CCNC(C)=O)c2c1.O=C(O)CC(O)(CC(=O)O)C(=O)O` [agomelatine citric acid cocrystal, N-[2-(7-methoxy-1-naphthyl)ethyl]acetamide Citric Acid Cocrystal], the “stability of the crystalline phase in suspension” value in data set [1] is on record as “generally stable”. In addition, in data set [2], the hygroscopicity entry was “not particularly hygroscopic”. In addition, the change in mass entry in data set [2] (two cycles of increasing and two of decreasing humidity) is “less than 0.2%”. Further, in data set [3] (after 20 minutes), the “state of the solid in water slurry after 20 minutes” value is on record as “near to complete dissolution of the citric acid”. In addition, the “state of the solid in water slurry after 40 minutes” value in data set [3] (after 40 minutes) is recorded as “no further changes in the spectrum were observed”. Besides, in data set [4], the “crystalline phase after heating” value is listed as “pure crystalline phase consistent with the agomelatine citric acid cocrystal”.
`COc1ccc2cccc(CCNC(C)=O)c2c1` [N-[2-(7-Methoxy-1-naphthyl)ethyl]acetamide]: the BCS solubility class entry in data set [5] is reported as “high solubility drug”.
